Laboratory results reported in ChEMBL document CHEMBL4665834 (J Med Chem, 2020).
≈ marks a conversion by molar mass, not a printed value.

Assays:
[1] = Solubility of compound in water using crystalline form of sample; format: physicochemical
[2] = Relative oral bioavailability in Wistar rat at 1 to 3 mg/kg administered via gavage in 99.5% water, 0.5% Tylose and TRIS salt formulation by LC-MS/MS analysis; format: ADME, organism-based; details: in vivo, dose 1-3 mg/kg
[3] = Lipophilicity, log D of compound at pH 7.5 by HPLC analysis; details: buffer
[4] = target: Prostaglandin F2-alpha receptor (Homo sapiens, UniProt P43088); assay: Antagonist activity at human FPR expressed in human Chem-1 cells assessed as inhibition of PGF2alpha-induced calcium flux preincubated for 10 mins followed by PGF2alpha stimulation and measured for 120 secs by fluo-8 AM dye based fluorescence assay; format: functional, cell-based
[5] = Maximum oral bioavailability in rat hepatocytes based well stirred liver model at 1 uM measured after 2 to 90 mins by LC-MS/MS analysis; format: ADME, Hepatocyte; details: time 2-90 min, read-out: Fmax
[6] = species: Homo sapiens; assay: Selectivity ratio of IC50 for displacement of [3H]prostaglandin E2 from full-length recombinant human EP4 receptor expressed in Chem-1 cell membranes to IC50 for displacement of [3H]PGF2alpha from full-length recombinant human FP receptor expressed in HEK293 cell membranes
[7] = Clearance in Wistar rat at 0.3 to 1 mg/kg, iv administered as bolus dose by LC-MS/MS analysis; format: ADME, organism-based; details: in vivo, dose 0.3-1 mg/kg
[8] = Efflux ratio of apparent permeability across basolateral to apical side over apical to basolateral side in human Caco-2 cells measured after 2 hrs by HPLC analysis; format: ADME, cell-based
[9] = Half life in Wistar rat at 0.3 to 1 mg/kg, iv administered as bolus dose by LC-MS/MS analysis; format: ADME, organism-based; details: in vivo, dose 0.3-1 mg/kg
[10] = target: Cytochrome P450 3A4 (Homo sapiens, UniProt P08684); assay: Inhibition of CYP3A4 in human liver microsomes using midazolam as substrate incubated for 10 mins in presence of NADPH generating system by LC-MS/MS analysis
[11] = Protein binding in pooled human plasma assessed as unbound fraction incubated for 6 hrs by LC-MS/MS analysis based equilibrium dialysis method; format: ADME, cell-free
[12] = Solubility of compound at pH 1 to 7 using crystalline form of sample; format: physicochemical
[13] = Clearance in Wistar rat at 0.3 to 1 mg/kg, iv administered as bolus dose or 15 mins infusion by LC-MS/MS analysis; format: ADME, organism-based; details: Wistar, in vivo, dose 0.3-1 mg/kg
[14] = Oral bioavailability in Wistar rat at 1 to 3 mg/kg administered via gavage using EtOH/PEG400/H2O 10/40/50 formulation by LC-MS/MS analysis; format: ADME, organism-based; details: in vivo, dose 1-3 mg/kg
[15] = species: Homo sapiens; assay: Selectivity ratio of IC50 for displacement of [3H]PGD2 from full-length recombinant human DP1 receptor expressed in Chem-1 cell membranes to IC50 for displacement of [3H]PGF2alpha from full-length recombinant human FP receptor expressed in HEK293 cell membranes
[16] = species: Homo sapiens; assay: Selectivity ratio of IC50 for displacement of [3H]prostaglandin E2 from full-length recombinant human EP3 receptor expressed in HEK293 cell membranes to IC50 for displacement of [3H]PGF2alpha from full-length recombinant human FP receptor expressed in HEK293 cell membranes
[17] = species: Homo sapiens; assay: Selectivity ratio of IC50 for displacement of [3H]prostaglandin E2 from full-length recombinant human EP1 receptor expressed in HEK293 cell membranes to IC50 for displacement of [3H]PGF2alpha from full-length recombinant human FP receptor expressed in HEK293 cell membranes
[18] = Apparent permeability in human Caco-2 cells measured after 2 hrs by HPLC analysis; format: ADME, cell-based
[19] = species: Homo sapiens; assay: Selectivity ratio of IC50 for displacement of [3H]prostaglandin E2 from full-length recombinant human EP2 receptor expressed in HEK293 cell membranes to IC50 for displacement of [3H]PGF2alpha from full-length recombinant human FP receptor expressed in HEK293 cell membranes
[20] = species: Homo sapiens; assay: Selectivity ratio of IC50 for displacement of [3H]PGD2 from full-length recombinant human IP receptor expressed in HEK293 cell membranes to IC50 for displacement of [3H]PGF2alpha from full-length recombinant human FP receptor expressed in HEK293 cell membranes
[21] = Relative oral bioavailability in Wistar rat at 1 to 3 mg/kg administered via gavage using crystalline form of sample in sodium salt formulation by LC-MS/MS analysis; format: ADME, organism-based; details: in vivo, dose 1-3 mg/kg

Sequence of Prostaglandin F2-alpha receptor (P43088 whole entry): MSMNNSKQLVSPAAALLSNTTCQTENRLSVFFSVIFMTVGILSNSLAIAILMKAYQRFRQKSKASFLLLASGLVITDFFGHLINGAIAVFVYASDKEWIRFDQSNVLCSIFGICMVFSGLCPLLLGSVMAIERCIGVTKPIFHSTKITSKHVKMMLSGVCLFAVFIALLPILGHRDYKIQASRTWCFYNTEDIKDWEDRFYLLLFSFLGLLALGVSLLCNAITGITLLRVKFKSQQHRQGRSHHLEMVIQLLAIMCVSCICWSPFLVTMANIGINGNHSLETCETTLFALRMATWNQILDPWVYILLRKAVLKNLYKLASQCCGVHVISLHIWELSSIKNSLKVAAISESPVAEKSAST
Sequence of Cytochrome P450 3A4 (P08684 whole entry): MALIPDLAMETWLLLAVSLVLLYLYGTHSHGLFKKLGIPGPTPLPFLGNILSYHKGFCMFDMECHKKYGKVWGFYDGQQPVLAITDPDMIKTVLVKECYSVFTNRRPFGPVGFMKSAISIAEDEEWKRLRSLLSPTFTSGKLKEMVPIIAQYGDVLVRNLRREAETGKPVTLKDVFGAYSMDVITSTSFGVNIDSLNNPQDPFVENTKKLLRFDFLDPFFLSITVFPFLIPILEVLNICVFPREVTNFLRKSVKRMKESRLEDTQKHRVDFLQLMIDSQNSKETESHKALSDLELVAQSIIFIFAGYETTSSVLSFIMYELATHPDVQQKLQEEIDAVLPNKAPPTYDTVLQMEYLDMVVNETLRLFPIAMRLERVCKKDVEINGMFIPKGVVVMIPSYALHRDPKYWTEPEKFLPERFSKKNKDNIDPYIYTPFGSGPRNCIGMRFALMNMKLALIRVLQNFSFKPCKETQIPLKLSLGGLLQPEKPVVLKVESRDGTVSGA

For `Cc1c(N2CCCC2)nc2ccc(Br)cc2c1C(=O)NC[C@H](CCC(=O)O)c1ccccc1Cl.Cl`, which solubility [1] is on record?
Its solubility is 2300 µg/mL.

Which bioavailability [2] does the source give for `Cc1c(-c2ccccc2)nc2ccc(Br)cc2c1C(=O)Nc1ccc(C(=O)O)cc1F.NC(CO)(CO)CO` here?
The bioavailability was 37%.

With `Cc1c(-c2ccccc2)nc2ccc(Br)cc2c1C(=O)NCCc1cccnc1` as the molecule, how does the logD [3] read?
The logD was 2.6.

And the IC50 [4]?
The IC50 was 3.4 µM.

What about the Fh at 1 µM [5] of the same molecule?
The Fh at 1 µM was 4%.

And the Ratio IC50 [6]?
The Ratio IC50 was > 7.7.

With `Cc1c(-c2ccccc2)nc2ccc(Br)cc2c1C(=O)Nc1ccc(-c2nnn[nH]2)cc1F` as the molecule, how does the clearance [7] read?
The clearance was 50 mL/min/kg.

And the IC50 [4]?
Its IC50 is 0.0052 µM.

And the efflux ratio at 2 h [8]?
Its efflux ratio at 2 h is 10.

And the Ratio IC50 [6]?
The Ratio IC50 was 50.

Which half-life [9] does the source give for `Cc1c(-c2ccccc2)nc2ccc(Br)cc2c1C(=O)Nc1ccc(C(=O)O)cc1F` here?
Its half-life is 3.1 h.

What about the logD [3] of the same molecule?
The logD was 1.9.

And the IC50 [4]?
Its IC50 is 0.027 µM.

What about the IC50 [10] of the same molecule?
Its IC50 is > 20 µM.

And the fraction unbound at 6 h [11]?
Its fraction unbound at 6 h is 0.016.

And the solubility [12]?
Its solubility is 1 µg/mL (≈ 2.09 µM).

And the clearance [13]?
The clearance was 16.7 mL/min/kg.

What about the bioavailability [14] of the same molecule?
The bioavailability was 100%.

Which results are given for `Cc1c(C(=O)Nc2ccc(C(=O)O)cc2F)c2cc(Br)ccc2c(=O)n1-c1ccccc1`?
Ratio IC50 [15]: > 1600; Ratio IC50 [16]: > 1600; logD [3]: 1.6; IC50 [4]: 0.04 µM; Ratio IC50 [17]: > 1600; IC50 [10]: > 20 µM; Papp at 2 h [18]: 3.9 ×10⁻⁶ cm/s; clearance [13]: 100 mL/min/kg; Ratio IC50 [19]: > 1600; efflux ratio at 2 h [8]: 7.4; Ratio IC50 [20]: > 1600; Ratio IC50 [6]: 170

For `Cc1c(-c2ccccc2)nc2ccc(Br)cc2c1C(=O)Nc1ccc(C(=O)[O-])cc1F.[Na+]`, which bioavailability [21] is on record?
The bioavailability was 29%.

For `Cc1c(-c2ccccc2)nc2ccc(Br)cc2c1C(=O)NC12CCC(C(=O)O)(CC1)CC2.NC(CO)(CO)CO`, which bioavailability [2] is on record?
Its bioavailability is 79%.

Which bioavailability [21] does the source give for `Cc1c(-c2ccccc2)nc2ccc(Br)cc2c1C(=O)NC12CCC(C(=O)[O-])(CC1)CC2.[Na+]` here?
The bioavailability was 80%.
